Measurements from patent publication US8748348B2, “3-(3,4-dihydro-2H-benzo [1,4]oxazin-6-yl)-1H-pyrimidin-2,4-dione compounds as herbicides” (BASF SE, priority 2009, dated 2014).

Legend:
BRAPL = experiment: greenhouse post-emergence herbicidal test; assay type: in vivo, Brachiaria plantaginea; details: scale from 0 to 100
From the text: (§1) The culture containers used were plastic flowerpots containing loamy sand with approximately 3.0% of humus as the substrate. The seeds of the test plants were sown separately for each species.
(§2) For the post-emergence treatment, the test plants were first grown to a height of 3 to 15 cm, depending on the plant habit, and only then treated with the active ingredients which had been suspended or emulsified in water. For this purpose, the test plants were either sown directly and grown in the same containers, or they were first grown separately as seedlings and transplanted into the test containers a few days prior to treatment.
(§3) Depending on the species, the plants were kept at 10-25° C. or 20-35° C. The test period extended over 2 to 4 weeks. During this time, the plants were tended, and their response to the individual treatments was evaluated.
(§4) Evaluation was carried out using a scale from 0 to 100. 100 means no emergence of the plants, or complete destruction of at least the aerial moieties, and 0 means no damage, or normal course of growth. A good herbicidal activity is given at values of at least 70 and a very good herbicidal activity is given at values of at least 85.

COMBE = experiment: greenhouse post-emergence herbicidal test; assay type: in vivo, Commenline benghalensis; details: scale from 0 to 100
From the text: as §1, §2, §3, §4

ERICA = experiment: greenhouse post-emergence herbicidal test; assay type: in vivo, Erigeron canadensis; details: scale from 0 to 100
From the text: as §1, §2, §3, §4

SETVI = experiment: greenhouse post-emergence herbicidal test; assay type: in vivo, Setaria viridis; details: scale from 0 to 100
From the text: as §1, §2, §3, §4

BRADE = experiment: greenhouse post-emergence herbicidal test; assay type: in vivo, Brachiaria deflexa; details: scale from 0 to 100
From the text: as §1, §2, §3, §4

ELEIN = experiment: greenhouse post-emergence herbicidal test; assay type: in vivo, Eleusine indica; details: scale from 0 to 100
From the text: as §1, §2, §3, §4

DIGSA = experiment: greenhouse post-emergence herbicidal test; assay type: in vivo, Digitaria sanguinales; details: scale from 0 to 100
From the text: as §1, §2, §3, §4

Pharbitis purpurea [1] = experiment: greenhouse pre-emergence herbicidal test; assay type: in vivo; details: application rate 0.025 kg/ha, eight days after treatment (greenhouse)
From the text: as §1
(§5) For the pre-emergence treatment, the active ingredients, which had been suspended or emulsified in water, were applied directly after sowing by means of finely distributing nozzles. The containers were irrigated gently to promote germination and growth and subsequently covered with transparent plastic hoods until the plants had rooted. This cover caused uniform germination of the test plants, unless this has been impaired by the active ingredients.
as §3, §4

Setaria faberi = experiment: greenhouse pre-emergence herbicidal test; assay type: in vivo; details: application rate 0.025 kg/ha, eight days after treatment (greenhouse)
From the text: as §1, §5, §3, §4

Solanum nigrum = experiment: greenhouse pre-emergence herbicidal test; assay type: in vivo; details: pre-emergence method, application rate 6.25 g/ha
From the text: as §1, §5, §3, §4

Erigeron Canadensis = experiment: greenhouse pre-emergence herbicidal test; assay type: in vivo; details: pre-emergence method, application rate 6.25 g/ha
From the text: as §1, §5, §3, §4

Amaranthus retroflexus [2] = experiment: greenhouse pre-emergence herbicidal test; assay type: in vivo; details: pre-emergence method, application rate 6.25 g/ha
From the text: as §1, §5, §3, §4

Chenopodium album = experiment: greenhouse post-emergence herbicidal test; assay type: in vivo; details: post-emergence method, application rate 6.25 g/ha
From the text: as §1, §2, §3, §4

Abutilon theophrasti = experiment: greenhouse post-emergence herbicidal test; assay type: in vivo; details: post-emergence method, application rate 6.25 g/ha
From the text: as §1, §2, §3, §4

Pharbitis purpurea [3] = experiment: greenhouse post-emergence herbicidal test; assay type: in vivo; details: post-emergence method, application rate 6.25 g/ha
From the text: as §1, §2, §3, §4

Amaranthus retroflexus [4] = experiment: greenhouse post-emergence herbicidal test; assay type: in vivo; details: post-emergence method, application rate 6.25 g/ha
From the text: as §1, §2, §3, §4

Structure (SMILES): CCNc1nc(Cl)nc(NC(C)C)n1 [B.54, atrazine, reference compound]
- herbicidal activity against BRAPL found (BRAPL; B.54 250 g/ha a.s.): 20
- herbicidal activity against COMBE found (COMBE; B.54 250 g/ha a.s.): 70

Structure (SMILES): CC(C)N(C)S(=O)(=O)NC(=O)c1cc(-n2c(=O)cc(C(F)(F)F)n(C)c2=O)c(F)cc1Cl [B.76, saflufenacil]
- herbicidal activity against ERICA found (ERICA; B.76 1.56 g/ha a.s.): 45
- herbicidal activity against SETVI found (SETVI; B.76 1.56 g/ha a.s.): 0

Structure (SMILES): Cc1c(C(=O)c2cnn(C)c2O)ccc(S(C)(=O)=O)c1C1=NOCC1 [B.93, topramezone, reference compound]
- herbicidal activity against BRADE found (BRADE; B.93 3.1 g/ha a.s.): 65

Structure (SMILES): CC(C)N.O=C(O)CNCP(=O)(O)O [B.98, glyphosate-isopropylammonium]
- herbicidal activity against ELEIN found (ELEIN; B.98 135 g/ha a.s.): 60
- herbicidal activity against ERICA found (ERICA; B.98 68 g/ha a.s.): 80
- herbicidal activity against SETVI found (SETVI; B.98 68 g/ha a.s.): 90

Structure (SMILES): Cn1nc(C(F)(F)F)c(CS(=O)(=O)C2=NOC(C)(C)C2)c1OC(F)F [B.118, pyroxasulfone, reference compound]
- herbicidal activity against DIGSA found (DIGSA; B.118 12.5 g/ha a.s.): 35

Structure (SMILES): C#CCN1C(=O)C(F)(F)Oc2cc(F)c(-n3c(=O)cc(C(F)(F)F)n(C)c3=O)cc21 [Ia48, 1-Methyl-6-trifluoromethyl-3-(2,2,7-trifluoro-3-oxo-4-prop-2-ynyl-3,4-dihydro-2H-benzo[1,4]oxazin-6-yl)-1H-pyrimidine-2,4-dione]
- herbicidal activity against BRAPL found (BRAPL; Ia48 6.25 g/ha a.s.): 60
- herbicidal activity against BRADE found (BRADE; Ia48 6.25 g/ha a.s.): 85
- herbicidal activity against DIGSA found (DIGSA; Ia48 6.25 g/ha a.s.): 65
- herbicidal activity against COMBE found (COMBE; Ia48 3.12 g/ha a.s.): 60
- damages, unwanted plants Pharbitis purpurea (Pharbitis purpurea [1]): 90
- damages, unwanted plants Setaria faberi (Setaria faberi): 98
- herbicidal activity against Solanum nigrum (Solanum nigrum): very good herbicidal activity (a very good herbicidal activity is given at values of at least 85)
- herbicidal activity against Erigeron Canadensis (Erigeron Canadensis): very good herbicidal activity (a very good herbicidal activity is given at values of at least 85)
- herbicidal activity against Amaranthus retroflexus (Amaranthus retroflexus [2]): very good herbicidal activity (a very good herbicidal activity is given at values of at least 85)
- herbicidal activity against ELEIN found (ELEIN; Ia48 3.12 g/ha a.s.): 20
- herbicidal activity against ERICA found (ERICA; Ia48 12.5 g/ha a.s.): 90
- herbicidal activity against Chenopodium album (Chenopodium album): very good herbicidal activity (a very good herbicidal activity is given at values of at least 85)
- herbicidal activity against Abutilon theophrasti (Abutilon theophrasti): very good herbicidal activity (a very good herbicidal activity is given at values of at least 85)
- herbicidal activity against Pharbitis purpurea (Pharbitis purpurea [3]): very good herbicidal activity (a very good herbicidal activity is given at values of at least 85)
- herbicidal activity against Amaranthus retroflexus (Amaranthus retroflexus [4]): very good herbicidal activity (a very good herbicidal activity is given at values of at least 85)
- herbicidal activity against SETVI found (SETVI; Ia48 12.5 g/ha a.s.): 95

Structure (SMILES): C#CCN1C(=O)COc2cc(F)c(-n3c(=O)cc(C(F)(F)F)n(C)c3=O)cc21 [example 39, reference compound]
- damages, unwanted plants Pharbitis purpurea (Pharbitis purpurea [1]): 80
- damages, unwanted plants Setaria faberi (Setaria faberi): 90
